This note sets out measurements from patent US20060211632A1, “PXR agonists for cardiovascular disease” (priority 2005, published 2006).

One assay concerns HDL-C. The assay is described as follows: HDL-C in rats after 8 days of treatment. In kind it is in vivo, rat. The protocol:
(§1) Treatments were administered by gavage once daily in the morning for eight (8) days.
(§2) Whole blood was collected by cardiac puncture under CO2 anesthesia 8 hours following ethosuximide infusion. Animals were then sacrificed using CO2 and cervical dislocation. Livers were excised and used for analysis of erythromycin demethylase activity (as described in the Slama et al. reference) and hepatic apoA1 mRNA. Plasma was separated from whole blood anticoagulated with 5 mM EDTA at room temperature using a bench top centrifuge (5000 rpm) for 5 minutes. Plasma was stored unpreserved at −20° C. for up to 5 days, and subsequently analyzed for ethosuximide and for HDL-C. Concentrations of ethosuximide and HDL-C were measured in plasma by fluorescence polarization immunoassay (fpia) using a TDx analyzer (Abbott Laboratories, Irving, Tex.) and commercially available reagents (Abbott Laboratories, Abbott Park, Ill.).

For another assay, the system named is serum HDL-C. The assay is described as follows: Serum HDL-C in wild-type mice after 7 days of treatment. The conditions noted are these: for HDL-C relative to controls (methylcellulose): gavage once daily 7 days, 100 mg/kg, gemfibrozil 20 mg/kg, troglitazone 6 and 60 mg/Kg, Dunnett's procedure. The format is in vivo, wild-type (WT; C57BL/6) mice. The procedure: In all cases methylcellulose was used as a vehicle control. These chemicals were administered, as a suspension in 1% methylcellulose (vehicle) by gavage using a 20 G—1½-inch feeding needle. The animals were treated in groups of three and for each treated group two mice were treated simultaneously with methylcellulose (vehicle). Each treatment was given once daily in the morning for seven days. […] The volume of vehicle used to suspend the treatment drugs and the dose of vehicle for control group was 7 ml/kg. Doses were selected based on the results obtained from previous studies in rats except for troglitazone and hyperforin, for which doses were weight-adjusted using estimates of average daily human doses as reference. After the completion of the treatment (i.e. on day 8), blood samples were collected from the tail of the animals for serum HDL-C and ApoA1 determination. Blood samples were allowed to clot for 2 hours, centrifuged at 14,000 rpm for 20 minutes, and serum was collected. The serum samples were then stored at −20° C. for up to 24 hours before quantitative determination of HDL-C and ApoA1. HDL-C was determined quantitatively in the serum using Liquid Direct HDL kits. The kit contained reagent 1, reagent 2, and HDL calibrator. The assay consisted of two steps. […] The peroxide byproduct of this reaction is rendered non-colored via catalase reduction. […] In this second step, the catalase is inhibited, the remaining HDL cholesterol specifically reacts with cholesterol esterase and cholesterol oxidase, and in the presence of peroxidase the peroxide byproduct reacts with 4-aminoantipyrine and HDAOS to form a colored […] dye. Both these reactions were allowed to occur at 37° C. […] Each sample was analyzed twice, and the average of both readings was used. Statistical treatments for HDL-C and apoA1 in mice were identical. For each of these variables, three basic analyses were performed, one for WT mice, one for PXR-KOs, and one for the two groups combined. Statistical analysis was performed in SAS (SAS Release 8, 1999, SAS Institute Inc., Cary, N.C.). In all cases the primary method of comparing treatments was ANOVA. Prior to performing this analysis, both variables were normalized by the geometric mean of their associated controls. Normality and homoscedasticity (constancy of variance across groups) were evaluated, with an appropriate data transformation (logarithmic) applied if necessary. These properties were checked before (to evaluate the need for transformation) and after transformation (to confirm the adequacy of the transformation) using normal probability plots and Levene's test for equality of variances (Snedecor et al., Statistical Methods, 8th Edition, Iowa State University Press, pp. 59-62 and 252-253, 1989). […]

Assay [1] deals with serum ApoA1. The assay is described as follows: Serum apoA1 in PXR-KO mice after 7 days of treatment. Conditions: for apoA1 relative to control: gavage once daily 7 days, gemfibrozil 20 mg/kg, others 100 mg/kg. In kind it is in vivo. The protocol:
(§3) PXR-KO mice were treated with either rifampicin, gemfibrozil, or CDD 3540. In all cases methylcellulose was used as a vehicle control. These chemicals were administered, as a suspension in 1% methylcellulose (vehicle) by gavage using a 20 G—1½-inch feeding needle. The animals were treated in groups of three and for each treated group two mice were treated simultaneously with methylcellulose (vehicle). Each treatment was given once daily in the morning for seven days. The doses were 100 mg/kg for CTZ, rifampicin, CDD 3540, phenobarbital and TCPOBOP, 6 mg/kg and 60 mg/Kg for troglitazone and 0.175 mg/Kg and 1.75 mg/Kg for hyperforin, and for gemfibrozil 20 mg/Kg and 100 mg/Kg. The volume of vehicle used to suspend the treatment drugs and the dose of vehicle for control group was 7 ml/kg.
(§4) After the completion of the treatment (i.e. on day 8), blood samples were collected from the tail of the animals for serum HDL-C and ApoA1 determination. Blood samples were allowed to clot for 2 hours, centrifuged at 14,000 rpm for 20 minutes, and serum was collected. The serum samples were then stored at −20° C. for up to 24 hours before quantitative determination of HDL-C and ApoA1.
An immuno-turbidimetric assay was developed for quantitative determination of ApoA1 in mouse serum. Commercially available stock solution of purified mouse ApoA1 (79 mg/dl) was used to construct a standard curve. A potassium phosphate buffer solution was prepared by diluting 1 ml of monobasic 1.0 M potassium phosphate buffer to 10 ml with distilled water, and the pH of the solution was adjusted to 7.2 using 0.1 N NaOH. […] 1 μl of mouse plasma was mixed with 3 μl of distilled water for quantitation of apoA1. […] Absorbance was measured at 580 nm using a Beckmann DU640 Spectrophotometer. Each sample or standard was analyzed twice, and the average of both readings was used. […]
Statistical treatments for HDL-C and apoA1 in mice were identical. […] Normality and homoscedasticity (constancy of variance across groups) were evaluated, with an appropriate data transformation (logarithmic) applied if necessary. […]

Assay [2] deals with serum ApoA1. The assay is described as follows: Serum apoA1 in wild-type mice after 7 days of treatment (immuno-turbidimetric assay). In kind it is in vivo, wild-type (WT; C57BL/6) mice. The conditions noted are these: for apoA1 relative to controls (methylcellulose): gavage once daily 7 days, 100 mg/kg, gemfibrozil 20 mg/Kg, troglitazone 6 and 60 mg/Kg, Dunnett's procedure. The procedure:
as §3, §4
An immuno-turbidimetric assay was developed for quantitative determination of ApoA1 in mouse serum. Commercially available stock solution of purified mouse ApoA1 (79 mg/dl) was used to construct a standard curve. A potassium phosphate buffer solution was prepared by diluting 1 ml of monobasic 1.0 M potassium phosphate buffer to 10 ml with distilled water, and the pH of the solution was adjusted to 7.2 using 0.1 N NaOH. […] A dilution of 1:4000 of the stock concentration was used per the manufacturer's recommendation. The standard curve was prepared with 0, 39.5, 79, and 158 mg/dl of mouse apoA1. 1 μl of mouse plasma was mixed with 3 μl of distilled water for quantitation of apoA1. 500 μl of buffer solution was added to 4 μl of total sample volume prepared as described. After 5 minutes, 100 μl of antibody solution was added. The mixture was allowed to incubate at 37° C. for 3 minutes. Absorbance was measured at 580 nm using a Beckmann DU640 Spectrophotometer. Each sample or standard was analyzed twice, and the average of both readings was used. Serum ApoA1 concentrations from control mice were also compared with the normal ApoA1 levels in mice, obtained from the literature, to affirm the validity of the assay procedure.
Statistical treatments for HDL-C and apoA1 in mice were identical. For each of these variables, three basic analyses were performed, one for WT mice, one for PXR-KOs, and one for the two groups combined. Statistical analysis was performed in SAS (SAS Release 8, 1999, SAS Institute Inc., Cary, N.C.). In all cases the primary method of comparing treatments was ANOVA. Prior to performing this analysis, both variables were normalized by the geometric mean of their associated controls. Normality and homoscedasticity (constancy of variance across groups) were evaluated, with an appropriate data transformation (logarithmic) applied if necessary. These properties were checked before (to evaluate the need for transformation) and after transformation (to confirm the adequacy of the transformation) using normal probability plots and Levene's test for equality of variances (Snedecor et al., Statistical Methods, 8th Edition, Iowa State University Press, pp. 59-62 and 252-253, 1989). […]

The next assay has as its system CYP3A. The assay is described as follows: CYP3A activity in rats (hepatic microsomal EDM activity, ethosuximide clearance). In kind it is in vivo, rat. The protocol:
as §1
Ethosuximide was prepared as a 3.5% (w/v) solution dissolved in normal saline. Ethosuximide was administered in a dose of 35 mg/kg via tail vein injection 24 hours following the eighth pretreatment dose.
as §2

The subject of assay [3] is hepatic apoA1 mRNA. The assay is described as follows: Time course of hepatic apoA1 mRNA in rats (Northern blot). The format is in vivo, rat. The conditions noted are these: 50 mg/Kg by gavage once daily, beginning after treatment day 2 and constant thereafter, p<0.05 vs vehicle controls. The procedure:
Hepatic apoA1 mRNA was measured by Northern Blot hybridization to total hepatic RNA with oligonucleotides for apoprotein A1 and elongation factor-1α (EF-1α). The procedure was similar to that described in the Slama et al. reference for hepatic CYP3A mRNA. The following oligonucleotide sequence used for rat apoA1 mRNA was based on the nucleotide sequence for rat apoA1 described by Haddad et al. (“Linkage, evolution and expression of the rat apolipoprotein A-1, C-III, and A-IV genes,” J Biol Chem 1986; 261: 13268-13277): 3′ CTACGTCAGTTCCTGTCGCCGTCTCTGATACACAGGGTCAAACTTAGGAGGTGAAACCCG 5′.
[…] were dosed with CDD 3540 (50 mg/Kg) by gavage once daily for 8 days, and three rats were treated with methylcellulose (vehicle controls). Groups of three treated rats were sacrificed at 6 and 12 h after the first dose, 12 and 24 h after the second dose, and at 12 hours after doses 4-8, respectively. Hepatic apoA1 mRNA was quantitated by northern blot analysis as described above.
Temporal differences in hepatic apoA1 mRNA in rats were evaluated by a simple Analysis of Variance (ANOVA) and a Tukey's post-hoc test.

In assay [4] the test system is hepatic apoA1 mRNA. The assay is described as follows: Hepatic apoA1 mRNA in rats after 8 days of treatment. In kind it is in vivo, rat. The protocol:
as §2, with “Treatments were administered by gavage once daily in the morning for eight (8) days. Whole” for “Whole”, “-20°” for “−20°”, “Ill.). […] Hepatic apoA1 mRNA was measured by Northern Blot hybridization to total hepatic RNA with oligonucleotides for apoprotein A1 and elongation factor-1α (EF-1α). The procedure was similar to that described in the Slama et al. reference for hepatic CYP3A mRNA. […]” for “Ill.).”

Take `Fc1ccc(C(c2ccc(F)cc2)(c2ccc(F)cc2)n2ccnc2)cc1` [CDD 3540]: the HDL-C entry with HDL-C was “increase”. Further, the “HDL-C relative to controls (methylcellulose)” value (shortened to “HDL-C relative to controls”) in the assay with serum HDL-C is listed as “significantly elevated”. Further, the “apoA1 relative to control” value in the assay on serum ApoA1 [1] is “neither rifampin nor CDD 3540 elicited significant changes”. Besides, the “increase in apoA1 relative to controls” value with serum ApoA1 [2] (100 mg/kg once daily 7 days) is on record as roughly 3.7 fold. Moreover, the “apoA1 relative to controls (methylcellulose)” value with serum ApoA1 [2] is listed as “significantly elevated”. Besides, in the assay on CYP3A, the CYP3A activity entry is given as “increase”. Further, in the assay on hepatic apoA1 mRNA [3], the “increase in hepatic apoA1” value is recorded as roughly 45%. Further, in the assay on hepatic apoA1 mRNA [4], the apoA1 entry was “increase”.
For `Clc1cnc(Oc2ccc(Oc3ncc(Cl)cc3Cl)cc2)c(Cl)c1` [TCPOBOP, 1,4-bis[2-(3,5-dichloropyridyloxy)]benzene], in the assay with serum HDL-C, the “HDL-C relative to controls” value is given as “did not significantly elevate”. The “apoA1 relative to controls (methylcellulose)” value in the assay on serum ApoA1 [2] is reported as “did not significantly elevate”.
Consider `Cc1ccc(C)c(OCCCC(C)(C)C(=O)O)c1` [gemfibrozil], for which the “HDL-C relative to controls” value in the assay on serum HDL-C was “significantly elevated”. For the same compound, the “apoA1 relative to control” value in the assay on serum ApoA1 [1] is reported as “significantly increase”. In the assay on serum ApoA1 [1] (gemfibrozil 20 mg/kg once daily 7 days), the “increase in apoA1 relative to control” value is on record as roughly 1.7 fold. Also, the “dose at peak of the dose-response curve” value in the assay on serum ApoA1 [2] (apoA1 and HDL-C, declined with higher doses) is 20 mg/kg. Further, the “apoA1 relative to controls (methylcellulose)” value in the assay with serum ApoA1 [2] was “significantly elevated”.
Regarding `CO[C@H]1/C=C/O[C@@]2(C)Oc3c(C)c(O)c4c(O)c(c(/C=N/N5CCN(C)CC5)c(O)c4c3C2=O)NC(=O)/C(C)=C\C=C\[C@H](C)[C@H](O)[C@@H](C)[C@@H](O)[C@@H](C)[C@H](OC(C)=O)[C@@H]1C` [rifampin, rifampicin], the “increase in HDL-C” value in the assay on serum HDL-C (100 mg/Kg once daily 7 days) is reported as “about 25%”.
